Experimental data taken from patent US7528141B2, “Use of cyclopenta[g]quinazoline derivatives for treating cancer” (BTG International Limited, priority 2001, dated 2009).
Values joined by “and” are separate entries in the source; they are usually repeats but may differ in a detail not shown here. Equal values may be shown once. Read-outs that look alike come from different tables or passages of the source.

Key:
KB cells = test: Inhibition of cell growth, KB cells; details: for fold increased IC50 in presence of folic acid, KB: IC50 + 1 μM FA vs without FA;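 as to all read-outs here: KB nasopharyngeal carcinoma cells express the α-folate receptor, and leucovorin at 20 nM was the folate source in the growth medium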
A431 cells = test: Inhibition of cell growth, A431 cells; details: for fold increased IC50 in presence of folic acid, A431: IC50 + 1 μM FA vs without FA
A431-FBP cells = test: Inhibition of cell growth, A431-FBP cells; details: for fold increased sensitivity compared with A431, A431-FBP: A431 IC50 vs A431-FBP IC50; for fold increased IC50 in presence of folic acid, A431-FBP: IC50 + 1 μM FA vs without FA
α-FR [1] = target: T1, α-FR (Homo sapiens, UniProt P15328); test: Binding to α-FR relative to folic acid, A431-FBP cells; details: human A431 cells transfected with α-FR; folic acid = 1
T1 construct: expressed in transfected cells; host or cells: A431 (human vulvar carcinoma)
T1 sequence (P15328 25-234): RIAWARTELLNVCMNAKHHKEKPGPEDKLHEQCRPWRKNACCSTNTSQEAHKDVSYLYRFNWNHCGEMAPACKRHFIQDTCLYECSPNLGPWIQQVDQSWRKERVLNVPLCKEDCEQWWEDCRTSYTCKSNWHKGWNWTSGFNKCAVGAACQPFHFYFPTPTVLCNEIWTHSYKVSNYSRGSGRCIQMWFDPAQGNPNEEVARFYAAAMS

[2] = target: T2, thymidylate synthase (TS) from L1210 mouse leukaemia cells (Mus musculus, UniProt P07607); test: Inhibition of isolated L1210 thymidylate synthase; assay type: biochemical
T2 construct: obtained in partially purified form from L1210 mouse leukaemia cells; endogenous in cells; host or cells: L1210 mouse leukaemia cells (enzyme partially purified)
T2 sequence (P07607 whole entry): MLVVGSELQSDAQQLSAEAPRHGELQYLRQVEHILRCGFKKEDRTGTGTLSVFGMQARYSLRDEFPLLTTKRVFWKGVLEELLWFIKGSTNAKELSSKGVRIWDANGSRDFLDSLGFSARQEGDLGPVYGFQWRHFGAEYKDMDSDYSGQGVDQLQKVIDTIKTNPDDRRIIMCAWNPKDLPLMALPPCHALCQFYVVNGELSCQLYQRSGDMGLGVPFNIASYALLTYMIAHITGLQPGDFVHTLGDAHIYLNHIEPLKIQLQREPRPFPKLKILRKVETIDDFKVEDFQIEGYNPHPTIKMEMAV

[3] = target: T3, reduced-folate carrier (RFC) (Mus musculus, UniProt P41438); test: Inhibition of 3H MTX uptake in L1210 cells; assay type: cell-based; details: Inhibition of 3H MTX uptake Ki, L1210, mouse L1210 tumor cells; high Ki = low affinity for RFC
T3 construct: endogenous in cells; host or cells: L1210
T3 sequence (P41438 1-512): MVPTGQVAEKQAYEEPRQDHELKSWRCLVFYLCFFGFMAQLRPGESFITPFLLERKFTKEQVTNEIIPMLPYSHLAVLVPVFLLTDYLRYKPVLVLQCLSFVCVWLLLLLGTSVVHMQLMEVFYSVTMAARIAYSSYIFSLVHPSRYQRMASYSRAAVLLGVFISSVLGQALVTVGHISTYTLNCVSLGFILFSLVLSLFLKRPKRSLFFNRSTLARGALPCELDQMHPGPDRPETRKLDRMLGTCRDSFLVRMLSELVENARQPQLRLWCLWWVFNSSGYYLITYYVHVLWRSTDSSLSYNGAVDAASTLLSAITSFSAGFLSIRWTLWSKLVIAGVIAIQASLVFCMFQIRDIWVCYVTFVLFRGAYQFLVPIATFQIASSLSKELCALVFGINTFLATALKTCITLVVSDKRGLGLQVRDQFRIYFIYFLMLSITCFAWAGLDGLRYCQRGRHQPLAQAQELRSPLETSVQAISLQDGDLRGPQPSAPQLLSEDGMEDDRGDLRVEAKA

α-FR [4] = target: T4, α-FR (Mus musculus, UniProt P35846); test: Binding to α-FR relative to folic acid, L1210-FBP cells; details: L1210-FBP mouse tumor cells overexpressing α-FR; folic acid = 1
T4 construct: endogenous in cells; host or cells: mouse L1210-FBP cells
T4 sequence (P35846 25-232): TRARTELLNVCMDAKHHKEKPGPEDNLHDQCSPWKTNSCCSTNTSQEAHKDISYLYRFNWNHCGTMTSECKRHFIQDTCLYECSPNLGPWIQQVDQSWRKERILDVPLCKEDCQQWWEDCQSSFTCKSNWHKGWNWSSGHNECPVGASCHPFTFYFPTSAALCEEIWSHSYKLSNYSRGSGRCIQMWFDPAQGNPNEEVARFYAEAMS

[5] = target: T5, reduced-folate carrier (RFC) (Homo sapiens, UniProt P41440); test: Inhibition of 3H MTX uptake in W1L2 cells; assay type: cell-based; details: Inhibition of 3H MTX uptake Ki, W1L2, human lymphoblastoid W1L2 cells; high Ki = low affinity for RFC
T5 construct: endogenous in cells; host or cells: W1L2
T5 sequence (P41440 1-591): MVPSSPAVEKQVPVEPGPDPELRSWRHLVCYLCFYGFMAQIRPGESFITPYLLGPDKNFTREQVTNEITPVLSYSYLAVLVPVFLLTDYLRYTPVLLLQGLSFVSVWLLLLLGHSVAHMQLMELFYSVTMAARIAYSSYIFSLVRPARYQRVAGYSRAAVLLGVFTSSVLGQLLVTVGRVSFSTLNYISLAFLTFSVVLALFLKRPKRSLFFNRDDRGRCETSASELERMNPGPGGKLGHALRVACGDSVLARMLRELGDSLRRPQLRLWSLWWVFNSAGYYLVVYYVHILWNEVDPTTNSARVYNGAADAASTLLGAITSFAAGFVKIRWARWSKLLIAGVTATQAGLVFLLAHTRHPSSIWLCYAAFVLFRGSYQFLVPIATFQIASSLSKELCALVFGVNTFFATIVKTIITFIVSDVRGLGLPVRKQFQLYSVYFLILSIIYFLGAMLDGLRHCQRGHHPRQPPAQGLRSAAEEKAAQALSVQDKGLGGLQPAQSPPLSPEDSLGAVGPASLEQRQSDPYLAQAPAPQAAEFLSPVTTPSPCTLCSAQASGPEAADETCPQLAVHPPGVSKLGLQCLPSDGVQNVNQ

[6] = Homo sapiens, KB, read-out: Inhibition of cell growth, IC50, KB, 20 nM LV
[7] = Homo sapiens, A-431, read-out: Inhibition of cell growth, IC50, A431
[8] = Homo sapiens, read-out: Inhibition of cell growth, IC50, A431-FBP
[9] = read-out: Inhibition of isolated L1210 TS, Kiapp
[10] = read-out: Inhibition of cell growth, IC50, KB + 1 μM FA, 20 nM LV, + 1 μM folic acid
[11] = read-out: Inhibition of cell growth, IC50, A431 + 1 μM FA, 20 nM LV, + 1 μM folic acid
[12] = read-out: Inhibition of cell growth, IC50, A431-FBP + 1 μM FA, 20 nM LV, + 1 μM folic acid
[13] = Inhibition of isolated L1210 TS, Kiapp

Structure (SMILES) | fold increased IC50 in presence of folic acid, KB (KB cells; 20 nM LV) | IC50 (KB cells; [6]) | fold increased IC50 in presence of folic acid, A431 (A431 cells; 20 nM LV) | IC50 (A431 cells; [7]) | fold increased sensitivity compared with A431, A431-FBP (A431-FBP cells; 20 nM LV) | fold increased IC50 in presence of folic acid, A431-FBP (A431-FBP cells; 20 nM LV) | IC50 (A431-FBP cells; [8]) | Inverse relative affinity for α-FR, A431-FBP (α-FR [1]) | Ki [2, 9] | Ki [3] | Inverse relative affinity for α-FR, L1210-FBP (α-FR [4]) | Ki [5] | IC50 (KB cells; [10]) | IC50 (A431 cells; [11]) | IC50 (A431-FBP cells; [12]) | Ki [2, 13] | IC50 (KB cells; read-out: Inhibition of cell growth, IC50, KB, 20 nM LV)
C#CCN(c1ccc(C(=O)N[C@@H](CCC(=O)N[C@H](CCC(=O)O)C(=O)O)C(=O)O)cc1)C1CCc2cc3nc(C)[nH]c(=O)c3cc21 (mixture of isomers) [CB300638 (R, S), N-{-{4-[N-((6RS)-2-methyl-4-oxo-3,4,7,8-tetrahydro-6H-cyclopenta[g]quinazolin-6-yl)-N-(prop-2-ynyl)amino]benzoyl}-L-γ-glutamyl}-D-glutamic acid] | (140) fold | 5.3 ± 2.5 nM | (1) fold | 1400 ± 230 nM | (220) fold | (130) fold | 6.5 ± 0.1 nM | 0.59 ± 0.03 | 0.42 nM | 166000 ± 34000 nM | 0.60 ± 0.06 | 279000 ± 146000 nM |  |  |  |  | 
C#CCN(c1ccc(C(=O)N[C@@H](CCC(=O)N(C)C(CCC(=O)O)C(=O)O)C(=O)O)cc1)C1CCc2cc3nc(C)[nH]c(=O)c3cc21 (mixture of isomers) [CB300899 (R, S), N-methyl-N-{N-{4-[N-((6RS)-2-methyl-4-oxo-3,4,7,8-tetrahydro-6H-cyclopenta[g]quinazolin-6-yl)-N-(prop-2-ynyl)amino]benzoyl}-L-γ-glutamyl}-L-glutamic acid] | (430) fold | 5.1 ± 0.31 nM | (1) fold | 2200 ± 170 nM | (2400) fold | (2100) fold | 0.92 ± 0.12 nM | 0.64 ± 0.046 | 0.78 nM | > 250000 nM | 0.62 ± 0.04 | > 250000 nM | 2200 ± 400 nM | 2100 ± 58 nM | 1900 ± 170 nM |  | 
C#CCN(c1ccc(C(=O)N[C@@H](CCC(=O)N[C@H](CCC(=O)O)C(=O)O)C(=O)O)cc1)C1CCc2cc3nc(CO)[nH]c(=O)c3cc21 (mixture of isomers) [CB300945 (R, S)] | (2100) fold | 3.4 ± 0.9 nM | (1) fold | 9800 ± 3400 nM | (4700) fold | (3100) fold | 2.1 ± 1.1 nM | 0.67 ± 0.11 |  | > 250000 nM | 0.73 ± 0.06 | > 250000 nM |  |  | 6500 ± 860 nM | 2.6 nM and 3.3 nM | 
C#CCN(c1ccc(C(=O)N[C@@H](CCC(=O)N(C)[C@@H](CCC(=O)O)C(=O)O)C(=O)O)cc1)C1CCc2cc3nc(CO)[nH]c(=O)c3cc21 (mixture of isomers) [CB300960 (R, S), N-{N-{4-[N-((6RS)-2-hydroxymethyl-4-oxo-3,4,7,8-tetrahydro-6H-cyclopenta[g]quinazolin-6-yl)-N-(prop-2-ynyl)amino]benzoyl}-L-γ-glutamyl}-N-methyl-L-glutamic acid] |  |  | (1) fold | 4500 nM |  | (180) fold | 28 nM |  |  |  |  |  |  |  |  |  | 
C#CCN(Cc1ccc2nc(N)[nH]c(=O)c2c1)c1ccc(C(=O)N[C@@H](CCC(=O)O)C(=O)O)cc1 [CB3717, reference compound] |  |  |  | 1200 ± 630 nM |  |  | 260 ± 120 nM |  |  | 46000 ± 17000 nM |  |  |  | 1400 ± 560 nM | 450 ± 140 nM |  | 
C#CCN(Cc1cc2c(=O)[nH]c(C)nc2cc1C)c1ccc(C(=O)N[C@@H](CCC(=O)O)C(=O)O)cc1 [CB3900, reference compound] | (2) fold | 130 ± 6 nM | (1) fold | 2200 ± 260 nM | (2) fold | (1) fold | 1400 ± 360 nM |  | 23 nM | 4300 nM and 4700 nM | 0.30 ± 0.07 | 1300 nM | 310 ± 40 nM | 2600 ± 920 nM | 1500 ± 290 nM |  | 
C#CCN(c1ccc(C(=O)N[C@@H](CCC(=O)N[C@H](CCC(=O)O)C(=O)O)C(=O)O)cc1)[C@H]1CCc2cc3nc(CO)[nH]c(=O)c3cc21 [CB300945 (S)] | (1800) fold | 2.7 ± 1.5 nM | (1) fold | 7000 nM | (4700) fold | (4300) fold | 1.5 nM | 0.69 ± 0.05 |  |  | 0.70 ± 0.015 |  | 4800 ± 750 nM | 6500 nM | 6400 nM | 1.9 nM | 
C#CCN(c1ccc(C(=O)N[C@@H](CCC(=O)O)C(=O)O)cc1)C1CCc2cc3nc(CO)[nH]c(=O)c3cc21 (stereo partly drawn) [CB300959 (R, S), reference compound] | (11) fold | 420 nM | (1) fold | 4200 nM | (0.5) fold | (2) fold | 8800 nM | 0.57 ± 0.032 | 12 nM |  | 0.71 ± 0.012 |  |  | 5800 nM | 18000 nM |  | 500 nM
C#CCN(Cc1ccc2nc(C)[nH]c(=O)c2c1)c1ccc(C(=O)N[C@@H](CCC(=O)O)C(=O)O)cc1 [ICI 198583, reference compound] |  | 2 ± 0.4 nM |  | 24 ± 4 nM |  |  | 12 ± 5 nM |  |  | 2600 ± 60 nM |  | 1200 nM and 1000 nM | 20 ± 2 nM | 26 ± 3.8 nM | 20 ± 4.6 nM |  | 
Cc1nc2ccc(CN(C)c3ccc(C(=O)N[C@@H](CCC(=O)O)C(=O)O)s3)cc2c(=O)[nH]1 [Raltitrexed, reference compound] |  | 1.1 ± 0.71 nM |  | 3.4 ± 1.6 nM |  |  | 0.79 ± 0.36 nM |  | 510 nM | 2600 nM and 2300 nM |  |  | 1.2 ± 0.59 nM | 3.6 ± 1.6 nM | 1.3 ± 0.7 nM |  | 
